US4786639A, “Method for the treatment of reversible airways obstruction and asthma” (Beecham Group p.l.c., priority 1984, dated 1988)
≈ marks a conversion by molar mass, not a printed value. Like-named read-outs stand apart in the source and are kept apart here.

Columns and labels:
[1] = test system: conscious guinea-pig; experiment: Guinea pig asphyxic collapse model in vivo (histamine aerosol); design: species or system guinea pig (female Dunkin-Hartley); settings: 5 mg/kg p.o., 30 min pretreatment, control 90 ± 10
Description: This model is based on the method described by Herxheimer (Br.J.Pharm.50, 314 (1974)]. Conscious female guinea pigs (Dunkin-Hartley strain, 500-700 g body weight) were placed individually into a Perspex chamber of approximately 8 litres capacity, and the animals were challenged with an histamine aerosol. The standard histamine aerosol was generated using a Monaghan 675 ultrasonic nebulizer (power setting 7) from a 5×10^-5 m solution of histamine acid phosphate in distilled water. After obtaining satisfactory aerosol generation, the aerosol was passed into the chamber for 10 seconds and the time was recorded from introduction of the aerosol until the guinea pig collapsed (termed asphyxic collapse). The animal was rapidly removed and allowed to recover. In this way, the mean time to asphyxic collapse for a group of guinea pigs was determined.
Compounds were administered orally to groups of animals and the degree of protection against histamine-induced asphyxic collapse was determined by the percentage increase in mean time to asphyxic collapse of a compound-treated group to asphyxic collapse for control groups was around 80-100 seconds. […]
The significance of any increase in the mean asphyxic collapse time of a compound-treated group of animals over that of a vehicle-treated control group was determined using students "t" test. […]

[2] = test system: Rat isolated colon; experiment: Rat isolated colon: inhibition of spontaneous contractions; design: species or system rat (male Wister); settings: 10 min, cumulative dosing at 10 min intervals, graphically determined, read-out: ID50 (concentration reducing amplitude of spontaneous contractions by 50%)
Method: Rat isolated colon. Male Wister rats (Charles River U.K.) were killed by a blow on the head and a 2 cm segment of proximal colon excised. After gently washing free any luminal contents the tissue was suspended longitudinally in a 10 ml organ bath containing Krebs solution of the following composition: NaCl 118.1 mM, KH2 PO4 1.18 mM, NaHCO3 25 mM, KCl 4.69 mM, MgSO4 1.64 mM, CaCl2 2.52 mM, Glucose 11.1 mM. This solution was maintained at 37° C. and constantly bubbled with 95% O2 : 5% CO2. Isometric contractions were recorded from the tissue with an initial tension of 1 g being applied.
The inhibitory effects of compounds 1+2 were assessed from the reduction in amplitude of the spontaneous contractions of the colon. Cumulative dose-response curves were constructed with the compounds being applied to the bath at intervals of 10 mins. ID50 (concentration of drug reducing amplitude of contractions by 50%) was graphically determined from the dose-response curve.
Rat isolated colon : effect of compounds 1 and 2 on spontaneous contractions

[3] = test system: Rat isolated portal vein; experiment: Rat isolated portal vein: inhibition of spontaneous contractions and of contractions due to added calcium; design: species or system rat (male Sprague Dawley); settings: for IC50: Rattus norvegicus, 0.25 h, 15 min contact time, 6-9 tissues, 95% fiducial limits in next line
Method: (1) Rat isolated portal vein. Male Sprague Dawley rats (250-350 g) were killed by cervical dislocation. Portal veins (2-3cm in length) were set up under 0.8-1 g tension in a 10 ml organ bath containing Krebs-Henseleit solution, at 37° C., of the following composition (mM): NaCl 118, NaHCO3 25, glucose 5, KH2 PO4 1.18, KCl 4.69, MgSO4 0.59, CaCl2.H2 O 1.87. The tissue was aerated with a 95% oxygen and 5% carbon dioxide mixture. Isometric tension was recorded using a Devices strain gauge and recorder. Each preparation was allowed 1h to equilibrate before the addition of test compound. The ability of a compound to inhibit the contractions due to added calcium (3 mM CaCl2) was determined in tissues bathed in Krebs-Henseleit solution containing 0.05 mM CaCl2 (in order to reduce spontaneous contractions). Then percentage inhibition (mean ±s.e.m.; 6-9 tissues) of the amplitude of the spontaneous contractions, and contractions due to added calcium, was determined after 15 min contact time with test compound.
(1) Rat Isolated Portal Vein: effect of compound 1 on spontaneous contractions and those due to added calcium.
IC50 is concentration of compound reducing contractions by 50%; parenthesis indicate 95% fiducial limits.

[4] = test system: Rabbit isolated mesenteric artery; experiment: Rabbit isolated mesenteric artery: relaxation of contractions due to KCl; design: species or system rabbit (male New Zealand White); settings: for IC50: Oryctolagus cuniculus, 4-9 tissues
Method: (2) Rabbit isolated mesenteric artery. Mesenteric arteries (3 mm rings) were removed from male New Zealand White rabbits and mounted, at a resting tension of 1.5-2.0 g, in a 10 ml organ bath containing a Ringer solution, at 37° C., of the following composition (mM): NaCl 120.8; KCl 5.9; CaCl2 2.5; MgCl2 1.2; HEPES 5.8; glucose 11.5. The bathing solution was bubbled with a 95% oxygen and 5% carbon dioxide mixture. Each preparation was allowed 1-11/2 h to equilibrate before the addition of either 30 or 90 mM KCl to contract the tissue. The ability of test compound to relax the sustained contraction due to KCl was determined by assessing the % reduction (mean ±s.e.m.; 4-9 tissues) produced by varying concentrations of test compound.
(2) Rabbit Isolated Mesenteric Artery: effect of compound 1 on contractions due to 30 and 90 mM KCl.
IC50 is the concentration of compound 1 halving the contraction due to KCl; parenthesis indicate 95% fiducial limits.

[5] = test system: potassium depolarised rat uterus; experiment: Relaxation of potassium depolarised rat uterus; design: species or system rat (female Sprague Dawley); settings: 7 preparations, relative to full relaxation with isoprenaline, read-out: % maximum relaxation
Method: Relaxation of Potassium Depolarised Rat Uterus
Female Sprague Dawley rats (120-160 g) were sacrificed and the uterine horns removed. Each horn was cut longitudinally to give a sheet of muscle which was further subdivided to give two preparations (i.e. 4 from each animal). Each tissue was mounted in a 10 ml organ bath containing normal Krebs buffer at 32° C. and gassed with 95% O2 -5% CO2. During an equilibration period of approximately 45 min the tissues were repeatedly stretched and washed to maintain a resting tension of 0.2 g. An increase in tension was induced by exchanging the Krebs buffer for one in which the sodium ions were replaced by the equivalent amount of potassium ions.
This caused the tissues to contract followed by a slow relaxation which equilibrated at a level above the initial resting level. A cumulative concentration effect curve to compound 1 was then carried out until the response to the final bath concentration (10^-4 M) had stabilised. Incremental concentrations of isoprenaline were then added until the tissues had fully relaxed. Results are expressed as a percentage of this maximum relaxation.
7 preparations were used.

IC50 [2] [µg/mL] | IC50 ([3]; contractions due to added calcium (3 mM CaCl2), read-out: IC50 Ca^2+ (3 mM) contractions) [nM] | IC50 ([3]; spontaneous contractions, read-out: IC50 Spontaneous contractions) [nM] | IC50 ([4]; 30 mM KCl, 95% fiducial limits in next line, read-out: IC50 30 mM KCl contraction) [nM] | IC50 ([4]; 90 mM KCl, read-out: IC50 90 mM KCl contraction) [nM] | Structure (SMILES) | Mean collapse time ([1]; N=4, **p < 0.01) [s] | relative potency, spontaneous contractions vs those due to added calcium ([3]; spontaneous contractions and those due to added calcium) | effect against a high concentration of KCl ([4]; high concentration of KCl) | antagonism of contractions due to potassium ([4]; partially (low KCl) vs fully (high KCl) depolarising concentration) | Mean collapse time ([1]; N=5, *p < 0.05) [s] | activation at 100 µM ([5]; 1 × 10^-4 M) [%] | activation at 10 µM ([5]; 1 × 10^-5 M) [%] | activation at 30 µM ([5]; 3 × 10^-5 M) [%] | activation at 3 µM ([5]; 3 × 10^-6 M) [%]
– | – | – | – | – | CCN(C(C)=O)[C@@H]1c2cc(C#N)ccc2OC(C)(C)[C@H]1O (relative stereo) [Compound 4, trans-4-(N-acetyl)-ethylamino-6-cyano-3,4-dihydro-2,2-dimethyl-2H-benzo[b]pyran-3-ol] | 176 ± 25 | – | – | – | – | – | – | – | –
1.7 (≈ 5.75 µM) | – | – | – | – | CC1(C)Oc2ccc(Cl)cc2[C@@H](N2CCCC2=O)[C@@H]1O (relative stereo) [Compound 2, 6-chloro-3,4-dihydro-2,2-dimethyl-trans-4-(2-oxo-1-pyrrolidinyl)-2H-benzo[b]pyran-3-ol] | – | – | – | – | – | – | – | – | –
0.12 (≈ 0.419 µM) | 150 | 120 | 510 | > 10000 | CC1(C)Oc2ccc(C#N)cc2[C@@H](N2CCCC2=O)[C@@H]1O (relative stereo) [Compound 1, 6-cyano-3,4-dihydro-2,2-dimethyl-trans-4-(2-oxo-1-pyrrolidinyl)-2H-benzo[b]pyran-3-ol] | – | equipotent | effectiveness of compound 1 against a high concentration of KCl | antagonises the contractions due to a partially, but not a fully, depolarising concentration of potassium | 154 ± 26 | 61 ± 6 | 18 ± 3 | 31 ± 3 | 6 ± 2
